Among the data in ChEMBL document CHEMBL1201862, “PubChem BioAssay data set” (2004) are EC50 and AC50 values, retold here.

Data set [1] can be described thus: alpha-synuclein stem-loop luciferase translation blockers – H4 neuroglioma cells, luminescence, confirmation (AID 1988). The class given is functional, cell-based.
Data set [2] is described as follows: luciferase reporter signal suppression in cells – H4 neuroglioma cells, luminescence, dose response (AID 1990). The class given is functional, cell-based.
Data set [3] in a line: Luminescence Cell-Based Dose Response HTS to Identify Inhibitors of 5'UTR Stem-Loop Driven Prion Protein mRNA Translation in H4 Neuroglioblastoma Cells. [Related pubchem assays: 1827 (Project Summary), 1813 (Primary HTS)]. The class given is functional.
The next data set concerns the target Cytochrome P450 3A4 (Homo sapiens, UniProt P08684).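 Also: CYP3A4 tested as one member of a cytochrome P450 panel screen.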
The target in a further data set is Cytochrome P450 2C9 (Homo sapiens, UniProt P11712).
In a further data set the target is Cytochrome P450 2C19 (Homo sapiens, UniProt P33261). Nature of the data set: Cytochrome panel assay with activity outcomes. Panel member name: p450-cyp2c19 Compounds with AC50 equal or less than 10 uM are considered active. The class given is functional.
Data set [4] has as its target T1, Corticotropin-releasing factor receptor 2/Corticotropin-releasing factor-binding protein (Homo sapiens, UniProt P24387+Q13324).
T1 sequence (Q13324 whole entry): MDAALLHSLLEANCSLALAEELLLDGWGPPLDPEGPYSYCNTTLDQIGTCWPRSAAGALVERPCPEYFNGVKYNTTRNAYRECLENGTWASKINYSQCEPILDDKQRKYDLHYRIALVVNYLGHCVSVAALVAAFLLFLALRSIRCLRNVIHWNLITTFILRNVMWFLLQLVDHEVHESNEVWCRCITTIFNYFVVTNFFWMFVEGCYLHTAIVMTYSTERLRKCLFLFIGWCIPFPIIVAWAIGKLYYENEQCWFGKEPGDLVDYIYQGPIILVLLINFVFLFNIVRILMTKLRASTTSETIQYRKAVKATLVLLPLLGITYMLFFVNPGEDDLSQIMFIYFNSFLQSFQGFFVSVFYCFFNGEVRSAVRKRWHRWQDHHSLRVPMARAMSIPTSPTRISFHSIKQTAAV
T1 sequence (P24387 whole entry): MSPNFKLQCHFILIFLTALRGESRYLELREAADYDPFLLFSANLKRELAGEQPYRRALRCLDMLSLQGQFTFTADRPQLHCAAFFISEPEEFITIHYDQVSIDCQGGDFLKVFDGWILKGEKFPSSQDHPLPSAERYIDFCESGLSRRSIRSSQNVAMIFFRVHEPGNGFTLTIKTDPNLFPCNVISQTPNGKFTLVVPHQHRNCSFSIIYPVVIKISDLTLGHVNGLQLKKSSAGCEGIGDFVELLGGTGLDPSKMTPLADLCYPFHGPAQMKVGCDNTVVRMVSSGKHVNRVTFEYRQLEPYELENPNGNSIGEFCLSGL
Description: activators of CRF receptor 2 with binding protein – uHTS hits, confirmation (AID 602473). The note with it: read-out: EC50_Mean. The class given is functional.

Activity calls are given as the source filed them.

Sequence of Cytochrome P450 3A4 (P08684 whole entry): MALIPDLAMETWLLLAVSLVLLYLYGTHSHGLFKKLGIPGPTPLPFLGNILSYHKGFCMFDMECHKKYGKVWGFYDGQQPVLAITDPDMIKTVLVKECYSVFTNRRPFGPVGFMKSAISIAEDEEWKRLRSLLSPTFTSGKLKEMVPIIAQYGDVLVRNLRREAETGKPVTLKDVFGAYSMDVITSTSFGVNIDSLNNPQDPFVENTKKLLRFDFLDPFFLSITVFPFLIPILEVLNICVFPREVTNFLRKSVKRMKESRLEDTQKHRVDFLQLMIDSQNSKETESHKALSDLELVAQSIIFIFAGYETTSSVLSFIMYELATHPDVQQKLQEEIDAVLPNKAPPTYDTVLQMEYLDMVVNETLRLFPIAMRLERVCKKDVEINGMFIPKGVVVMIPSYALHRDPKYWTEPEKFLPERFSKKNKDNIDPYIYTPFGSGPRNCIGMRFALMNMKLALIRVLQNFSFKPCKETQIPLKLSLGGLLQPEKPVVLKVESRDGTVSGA
Sequence of Cytochrome P450 2C9 (P11712 whole entry): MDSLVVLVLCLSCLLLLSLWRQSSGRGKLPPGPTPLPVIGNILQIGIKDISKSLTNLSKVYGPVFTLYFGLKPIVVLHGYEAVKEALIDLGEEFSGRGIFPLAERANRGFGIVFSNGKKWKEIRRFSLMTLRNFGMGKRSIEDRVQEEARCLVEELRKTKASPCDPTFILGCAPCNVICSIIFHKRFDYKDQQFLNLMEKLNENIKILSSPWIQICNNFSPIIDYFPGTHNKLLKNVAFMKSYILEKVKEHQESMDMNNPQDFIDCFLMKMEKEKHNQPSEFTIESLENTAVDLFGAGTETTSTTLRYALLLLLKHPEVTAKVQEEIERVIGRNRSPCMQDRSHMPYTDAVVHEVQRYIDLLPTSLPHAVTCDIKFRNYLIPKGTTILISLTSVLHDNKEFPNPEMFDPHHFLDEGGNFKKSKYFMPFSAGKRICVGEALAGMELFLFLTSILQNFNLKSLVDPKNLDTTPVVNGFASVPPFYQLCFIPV
Sequence of Cytochrome P450 2C19 (P33261 whole entry): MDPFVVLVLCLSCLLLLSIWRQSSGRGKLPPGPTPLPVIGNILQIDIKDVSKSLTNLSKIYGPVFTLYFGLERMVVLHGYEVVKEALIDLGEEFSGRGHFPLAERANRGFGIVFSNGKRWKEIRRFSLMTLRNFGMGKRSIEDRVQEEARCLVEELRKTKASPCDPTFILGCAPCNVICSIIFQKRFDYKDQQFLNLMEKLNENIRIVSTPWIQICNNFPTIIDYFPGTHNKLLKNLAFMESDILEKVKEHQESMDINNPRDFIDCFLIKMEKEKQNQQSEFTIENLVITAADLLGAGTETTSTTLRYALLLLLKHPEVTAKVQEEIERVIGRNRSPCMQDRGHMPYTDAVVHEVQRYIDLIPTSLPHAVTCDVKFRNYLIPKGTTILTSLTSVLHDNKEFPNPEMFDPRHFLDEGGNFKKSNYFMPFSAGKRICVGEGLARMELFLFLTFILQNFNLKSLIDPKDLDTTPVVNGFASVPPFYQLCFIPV

As to `CN(C)CCNC(=O)c1csc(Nc2cccc3ccccc23)n1`, the figures for the EC50 in data set [1], in data set [2] and in data set [3] were 17.1 µM (active), > 120 µM (not active) and 23.6 µM (active), respectively.

As usually defined, the AC50 is the concentration giving half of the maximal activity seen. Turning to `O=c1c(-c2ccc(Cl)cc2)nc2cncnc2n1Cc1ccc(F)cc1`, the AC50 on Cytochrome P450 3A4 was 15.8 µM (inconclusive).

For `COc1ccc(NC(=O)N2CCCC3(CCN(C(=O)c4c(C)noc4C)CC3)C2)cc1`, the AC50 at Cytochrome P450 3A4 is 25.1 µM (inconclusive).

`C[C@@H](C(=O)Nc1ccc2ccccc2c1)[C@H]1C[C@]1(C)[C@H](NC(=O)Oc1ccc(F)cc1)c1ccccc1`: the AC50 on Cytochrome P450 2C9 was 31.6 µM (inconclusive).

As for `Cc1cc(C)c2cc(C#N)c(NCCOC(=O)c3ccccc3C)nc2c1`, the AC50 on Cytochrome P450 2C19 (read-out: AC50) was 1.78 µM (inconclusive).

For `COC(=O)[C@@]1(Cc2ccc(OC)cc2)[C@@H]2C(=CC(=O)[C@H]2CC(=O)C(=O)N2CCCC2)CN1C(=O)c1ccccc1`, the figures for the AC50 on Cytochrome P450 2C19 (read-out: AC50) and on Cytochrome P450 3A4 were 39.8 µM (inconclusive) and 2 µM (inconclusive), respectively.

As to `O=C(OCc1ccccc1Cl)c1cc([N+](=O)[O-])ccc1N1CCOCC1`, the EC50 was 36.1 µM (active) in data set [1], 23.3 µM (active) in data set [2] and > 120 µM (not active) in data set [3].

`CCOC(=O)CC(=O)CSc1nc(-c2cccnc2)cc(C)c1C#N`: the half-maximal activity concentration (AC50) is 8.91 µM (inconclusive) at Cytochrome P450 2C19 (read-out: AC50) and 11.2 µM (inconclusive) at Cytochrome P450 3A4.

With `Cc1ccc2cc(C(c3nnnn3C3CCCC3)N3CCN(c4ccc(F)cc4)CC3)c(O)nc2c1` (configuration not stated), the values for the EC50 in data set [1], in data set [2] and in data set [3] were 106 µM (active), 20.6 µM (active) and 113 µM (active), respectively.

`COc1ccc(NC(=O)/C(=C\c2cc(OC)c(OC)cc2[N+](=O)[O-])NC(=O)c2ccccc2)cc1`: the AC50 at Cytochrome P450 2C19 (read-out: AC50) is 20 µM (inconclusive); on Cytochrome P450 3A4, 0.891 µM (inconclusive).

`CCCOc1ccccc1N=C(Nc1nc(C)cc(C)n1)NS(=O)(=O)c1ccc(C)cc1`: the EC50 in data set [1] was > 120 µM (not active); in data set [2], 14.6 µM (active); in data set [3], > 120 µM (not active).

As for `CCC/C=C(\CCC)C(NC(=O)OCC(C)C)c1ccc(C(=O)OC)cc1` (configuration not stated), on Cytochrome P450 2C19 (read-out: AC50), the AC50 was 25.1 µM (inconclusive).

Regarding `Cc1cc(S(=O)(=O)NCCN(C)C)c(C)s1`, the concentration at half-maximal activity (AC50) at Cytochrome P450 2C19 (read-out: AC50) was 31.6 µM (inconclusive); on Cytochrome P450 2C9 it was 0.0447 µM (inconclusive).

For `Cc1nc2cnc(Oc3cccc(Cl)c3)nc2n(C[C@H]2CCCO2)c1=O`, the AC50 on Cytochrome P450 3A4 is 15.8 µM (inconclusive).

On to `Cc1cc(Oc2ccccc2)nc(-c2ccccc2)n1`, for which, at Cytochrome P450 2C9, the AC50 is 12.6 µM (inconclusive).

As to `COc1ccc(Oc2ncc3ncc(=O)n(C[C@H]4CCCO4)c3n2)cc1`, the AC50 at Cytochrome P450 2C9 was 20 µM (inconclusive).

As for `Cc1cc(C(=O)OC2CCOC2=O)c2ccccc2n1` (configuration not stated), the AC50 at Cytochrome P450 2C19 (read-out: AC50) was 28.2 µM (inconclusive).

Regarding `COc1ncc2nc(CCc3ccccc3)c(=O)n(CCc3ccccc3)c2n1`, at Cytochrome P450 2C9, the concentration at half-maximal activity (AC50) was 2 µM (inconclusive).

As for `OCCCCNCc1ccc(OCc2ccccc2Cl)cc1`, the half-maximal activity concentration (AC50) at Cytochrome P450 2C19 (read-out: AC50) and on Cytochrome P450 3A4 was 25.1 µM (inconclusive) each time.

Turning to `O=C(Nc1ccc(Br)cc1Cl)c1ccc2c(=O)n3c(nc2c1)CCC3`, the EC50 in data set [4] is 4.04 µM (active).

As for `Cc1ccccc1C(=O)Nc1cccc(NC(=O)Cn2cnc3c(=O)n(C)c(=O)n(C)c32)c1`, the EC50 was > 120 µM (not active) in data set [1], 26.9 µM (active) in data set [2] and 12.9 µM (active) in data set [3].

On to `Cc1cc(C)cc(N2C(=O)/C(=C/NC3CCS(=O)(=O)C3)c3ccccc3C2=O)c1` (configuration not stated), for which, at Cytochrome P450 2C19 (read-out: AC50), the AC50 was 39.8 µM (inconclusive).

Turning to `N#C/C(=C(/O)c1cccc(F)c1)c1nc2ccccc2s1`, the EC50 in data set [4] was > 53 µM (inactive).

Turning to `CCOC(=O)c1sc(NC(=O)c2cccc(S(=O)(=O)N3c4ccccc4CC3C)c2)cc1C` (configuration not stated), the EC50 in data set [1] was 6.96 µM (active); in data set [2] it was 10.1 µM (active); in data set [3], 13.6 µM (active).

In the case of `COc1ccccc1-c1ccc2ncnc(Nc3ccccc3)c2c1`, the AC50 on Cytochrome P450 2C9 is 1.26 µM (inconclusive).

`CCCCc1nc(NCC2CCCO2)c(C#N)c2c1COC(C)(C)C2` (configuration not stated): the EC50 in data set [1] is > 120 µM (not active); in data set [2], 28 µM (active); in data set [3], > 120 µM (not active).

On to `COc1ccc(Cc2nn3c(-c4ccccc4Br)nnc3s2)cc1`, for which the EC50 in data set [1] and in data set [2] was > 120 µM (not active) in each case.

For the compound `c1ccc(Oc2cccc(OCCCCSc3ncccn3)c2)cc1`, the EC50 in data set [4] is > 53 µM (inactive).

On to `COCCn1c(=O)c(-c2cccs2)nc2cnc(N3CCN(C)CC3)nc21`, for which the AC50 on Cytochrome P450 3A4 was 31.6 µM (inconclusive).

With `CC(C)=CCC/C(C)=C/CO/N=C1/C[C@@H](O)[C@@H](O)[C@@H]2[C@H]3C(=O)N(c4ccc(F)cc4F)C(=O)[C@@H]3CC[C@@H]12`, the AC50 at Cytochrome P450 3A4 was 3.98 µM (inconclusive).

For `COc1ccccc1-c1nc(N(C)C)c2ccccc2n1`, the AC50 at Cytochrome P450 3A4 is 15.8 µM (inconclusive).

As to `COc1ccccc1NC(=O)CCSc1nnnn1C`, the EC50 in data set [4] is > 53 µM (inactive).

In the case of `Cc1ccc(SCc2ccc(C(=O)Nc3ccccc3Br)cc2)cc1`, the EC50 in data set [4] is > 53 µM (inactive).

Turning to `c1ccc(CNc2nc(-c3ccoc3)nc3ccccc23)cc1`, the AC50 at Cytochrome P450 2C19 (read-out: AC50) was 20 µM (inconclusive).

Take `CCOc1ccc(S(=O)(=O)Nc2nc3ccccc3nc2Nc2ccc(N3CCOCC3)cc2)cc1`: in data set [4], the EC50 was > 53 µM (inactive).

`CN(C)Cc1ccccc1-c1nc(N(C)Cc2ccco2)c2ccccc2n1`: the AC50 on Cytochrome P450 3A4 was 1.58 µM (inconclusive).

In the case of `CC(C)(Oc1ccc(Cl)cc1)C(=O)Nc1cccnc1`, the AC50 at Cytochrome P450 3A4 is 17.8 µM (inconclusive).

As to `COc1ccc(C2(C)NC(=O)N(CC(=O)c3cc(C)n(C4CC4)c3C)C2=O)cc1` (configuration not stated), the EC50 in data set [4] was 5.74 µM (active).

Take `CCCOC(=O)c1ccc(NC(=O)c2cn(CC)c3nc(C)ccc3c2=O)cc1`: the AC50 at Cytochrome P450 2C19 (read-out: AC50) is 20 µM (inconclusive); at Cytochrome P450 2C9, 15.8 µM (inconclusive).

As to `COc1cc([N+](=O)[O-])ccc1-c1ccc(/C=N/NC(=O)OC(C)(C)C)o1`, the EC50 in data set [4] was 6.43 µM (active).

As to `CC1(C)C(=O)OC(c2cccn2-c2ccc([N+](=O)[O-])cc2)C2(CCCCC2)C1=O` (configuration not stated), in data set [4], the EC50 is 4.72 µM (active).

`Cc1cc(C)n(CC(=O)N/N=C/c2ccco2)n1`: on Cytochrome P450 2C19, the AC50 entry is “inconclusive”.

For `COc1ccc(/C=N/NC(=O)C2CCN(c3ncc(C(F)(F)F)cc3Cl)CC2)cc1`, the AC50 on Cytochrome P450 3A4 is 11.2 µM (inconclusive).

Take `Cc1c(CC(C)(C)C(=O)O)n(Cc2ccc(Cl)cc2)c2ccc(F)cc12`: the figures for the half-maximal activity concentration (AC50) entry at Cytochrome P450 2C19 and on Cytochrome P450 3A4 were “inconclusive” and 25.1 µM (inconclusive), respectively.

Turning to `COc1cccc(-c2ccc3ncnc(NCc4cccnc4)c3c2)c1`, the AC50 on Cytochrome P450 2C9 is 1.58 µM (inconclusive).

Take `COc1ccc(-c2oc3cc(OC)c(O)c(OC)c3c(=O)c2OC)cc1O`: the EC50 was 13.6 µM (active) in data set [1], 11.3 µM (active) in data set [2] and 12.6 µM (active) in data set [3].

As for `Nc1ccc(S(=O)(=O)c2ccc(NCN3C(=O)NC(=O)C(=O)C3=O)cc2)cc1` [ALLANTODAPSONE], the AC50 entry at Cytochrome P450 2C19 is “inconclusive”.

As to `CCN(CC)CC#CCOC(=O)[C@@](O)(c1ccccc1)C1CCCCC1` [ESOXYBUTYNIN], the AC50 on Cytochrome P450 2C9 was 15.8 µM (inconclusive).
